The record followed here is PMC10222548, “Semisynthesis, Biological Evaluation and Molecular Docking Studies of Barbatic Acid Derivatives as Novel Diuretic Candidates” (Molecules, 2023).

SMILES strings stand for the structures. Where two headings read alike, the source gives them in different places. Bounds are passed on as bounds.

Data set [1] deals with MDCK cells. In words: MTT cytotoxicity assay on MDCK cells. The class given is cell-based, canine. The note with it: Canis lupus familiaris, 100 μmol/L, 24 h, mean ± SD of three replicates, read-out: Growth Inhibition Rate (%). The procedure: First, we used the MTT method to perform cytotoxicity of barbatic acid derivatives (1, 6a–6p′) on MDCK cells at the concentration of 100 μmol/L, and the results are shown in Table 1.
The MTT assay was used to evaluate the cytotoxicity of the target compounds on DMCK cells. Logarithmic-growth-phase DMCK cells were seeded in a 96-well plate (10^4 cells/well) and incubated in a cell culture incubator for 24 h. The culture medium was then removed and replaced with a drug-containing medium for the treatment groups (1, 6a–6p′, 100 μmol/L), normal saline for the control group, or hydrochlorothiazide (100 μmol/L) for the positive control group. Each well was treated with 100 µL of the respective solution and incubated for an additional 24 h. The culture medium was then removed and replaced with a DMEM solution containing 20 µL of MTT (5 mg/mL). After incubating for 4 h, the liquid in each well was removed and replaced with 150 µL of DMSO, which was shaken for 10 min to ensure thorough mixing. The absorbance at 490 nm was measured to determine the optical density (OD) of each well. Cell growth inhibition rate (%) = (ODBlank − ODExperimental)/ODBlank × 100%.
For orientation: Formazan colour is commonly taken as a measure of viable cells.

For data set [2], the system named is C2O4^2− transport, MDCK cells. In words: In vitro litholytic activity: C2O4^2− transport inhibition, Transwell chamber with MDCK cells. The class given is cell-based, canine. The note with it: Canis lupus familiaris; 100 μmol/L, MDCK cells in Transwell; mean ± SD of three replicates; read-out: Transport Inhibition Rate (%) C2O4^2−. The procedure: (§1) On the other hand, all compounds had little inhibitory effect on Ca^2+ transport. The structure–activity relationships (SARs) were also observed. […] On the other hand, the introduction of the benzyl group to the R^1 or R^2 of barbatic acid could not lead to more promising compounds, such as 6a, 6n, 6u, 6b′, and 6i′–p′.
(§2) Logarithmic-phase DMCK cells were inoculated in the upper chamber of a Transwell plate (4 × 10^4 cells/well). Then, 800 µL of complete culture medium was added to the lower chamber, and the cells were incubated for 24 h until they adhered to the wall. The resistance value of the upper chamber cells was measured one by one at 37 °C (R = (Rcell − Rblank) × 0.04π). When the resistance value of the upper chamber cells was ≥300 Ω cm^2, the upper chamber liquid was discarded for drug administration. A control group (given physiological saline) and an experimental group (1, 6a–6p′, 100 μmol/L) were set up, and 100 µL of each drug was administered per well, followed by continued incubation for 24 h. Then, the upper and lower chamber liquids were discarded, and 200 µL of CaC2O4 (30 mmol/L) solution was added to the upper chamber, and 800 µL of PBS solution was added to the lower chamber for continued incubation. At 0.5, 1, 2, and 3 h, 50 µL of the lower chamber liquid was taken and then tested using the Ca^2+ and C2O4^2− detection kits and the following detection methods. The transport inhibition rate (%) = (ODblank − ODexperimental)/ODblank × 100%.

The test system of data set [3] is Ca^2+ transport, MDCK cells. Nature of the data set: In vitro litholytic activity: Ca^2+ transport inhibition, Transwell chamber with MDCK cells. The class given is cell-based, canine. To be noted: Canis lupus familiaris, 100 μmol/L, mean ± SD of three replicates, read-out: Transport Inhibition Rate (%) Ca^2+. The procedure:
as §1, §2

The subject of data set [4] is Cl^− transport, MDCK cells. In words: In vitro diuretic activity: Cl^− transport inhibition, Transwell chamber seeded with MDCK cells. Type of data set: cell-based, canine. To be noted: Canis lupus familiaris, read-out: Transport Inhibition Rate (%) Cl^−. From the text:
(§3) The traditional methods for screening diuretic drugs are mostly in vivo experiments with mice, which have a long experimental cycle and are not suitable for screening massive compounds. As we know, the generation and excretion of urine involve two processes: glomerular filtration and tubular reabsorption. Reabsorption refers to the process in which the renal tubular epithelial cells transport water and certain solutes from the tubular fluid (urine) partially or entirely back into the bloodstream. Then, 99% of the water in the original urine filtered by the glomerulus is reabsorbed, and the transport of Na^+ and Cl^− plays an important role in this process. Thiazide and furosemide diuretics exert their diuretic effects by inhibiting the transport of Na^+ and Cl^−, which affects the tubular reabsorption of the original urine. Based on this principle, we established a new type of cell screening model for diuretic active drugs. Madin–Darby canine kidney (MDCK) cells were inoculated into a Transwell chamber to simulate the renal tubules. This cell model could transport and absorb external NaCl, simulating the reabsorption phenomenon. […] The effectiveness of this model was confirmed by the validation of hydrochlorothiazide, which is a commercially available diuretic drug and could inhibit the transport of Na^+ and Cl^− in renal tubules.
(§4) Generally, the transport of Na^+ and Cl^− plays an important role in glomerular filtration and tubular reabsorption. […] For example, inhibition rates of transport of 6a and 6c were over 30%, and had better inhibitory ability than barbatic acid. […] When ethyl, propyl, and benzyl were substituted on R^1, the introduction of any group could not enhance the inhibitory activity of barbatic acid, such as 6h–u and 6j′–6p′.
(§5) Log-phase MDCK cells were seeded in the upper chambers of Transwell plates (4 × 10^4 cells/well), and 800 µL of complete culture medium was added to the lower chambers. After 24 h of incubation at 37 °C, the electrical resistance of the upper chamber cells was measured one by one (R = (Rcell − Rblank) × 0.04π). When the electrical resistance of the upper chamber cells reached ≥300 Ω cm^2, the upper chamber medium was removed and replaced with the drug solution. The blank group (given normal saline), the experimental group (1, 6a–6p′, 100 μmol/L), and the hydrochlorothiazide group (100 μmol/L) were set, and each well was treated with 100 µL of the corresponding solution. The cells were then further incubated for 24 h. After that, the upper and lower chamber fluids were removed, and 200 µL of NaCl solution (15 mg/mL) was added to the upper chamber, while 800 µL of DMEM was added to the lower chamber for continued incubation. At 0.5, 1, 2, and 3 h, 50 µL of the lower chamber fluid was taken and the OD values were measured using Na^+ and Cl^− detection kits. The transport inhibition rate (%) was calculated as follows: transport inhibition rate (%) = (ODblank − ODexperimental)/ODblank × 100%.

In data set [5] the test system is Na^+ transport, MDCK cells. Nature of the data set: In vitro diuretic activity: Na^+ transport inhibition, Transwell chamber seeded with MDCK cells. Type of data set: cell-based, canine. The note with it: for inhibition at 100 µM: Canis lupus familiaris, MDCK.
Source text: as §3, §4, §5

Setting [6] is: 100 μmol/L, MDCK cells in Transwell, mean ± SD of three replicates, negative = promotion.
Where [7] appears, read: 100 μmol/L, MDCK cells in Transwell, mean ± SD of three replicates, negative = promotion, read-out: Transport Inhibition Rate (%) Na^+.

`Cc1cc(OC(=O)c2c(C)cc(OC(C)C)c(C)c2O)c(C)c(O)c1C(=O)OCC#N` [6a′, 4-((cyanomethoxy)carbonyl)-3-hydroxy-2,5-dimethylphenyl 2-hydroxy-4-isopropoxy-3,6-dimethylbenzoate]: the melting point lay in the range of 155 to 158 °C. In data set [1], the inhibition at 100 µM was less than 0%. In addition, the inhibition at 100 µM in data set [2] is -13.2 ± 1.67%. Besides, the inhibition at 100 µM in data set [3] is -0.91 ± 0.11%. In addition, the inhibition at 100 µM in data set [4] (setting [6]) was -10 ± 1.95%. Moreover, the inhibition at 100 µM in data set [5] (setting [7]) was -15.8 ± 4.85%.
Turning to `Cc1cc(OC(=O)c2c(C)cc(OC(C)C)c(C)c2O)c(C)c(O)c1C(=O)OCc1ccccc1` [6b′, benzyl 2-hydroxy-4-(2-hydroxy-4-isopropoxy-3,6-dimethylbenzoyloxy)-3,6-dimethylbenzoate], the melting point lay in the range of 83 to 86 °C. In data set [1], the inhibition at 100 µM was less than 0%. In addition, the inhibition at 100 µM in data set [2] was -20.6 ± 1.31%. For the same molecule, the inhibition at 100 µM in data set [3] is 0.73 ± 0.08%. In data set [4] (setting [6]), the inhibition at 100 µM was 15.9 ± 0.25%. For the same molecule, the “Transport Inhibition Rate (%) Na^+” value in data set [5] (setting [6]) came out at 33.08 ± 0.35%. Also, in data set [5] (setting [7]), the inhibition at 100 µM is greater than 30%. The “Na^+ transport inhibition rate at 1, 2, and 3 h” value in data set [5] (evaluated at 1, 2, and 3 h (Figure 3)) is reported as “above 20%”.
In turn, `C=CCOc1cc(C)c(C(=O)Oc2cc(C)c(C(=O)OCC)c(O)c2C)c(O)c1C` [6d′, 4-(ethoxycarbonyl)-3-hydroxy-2,5-dimethylphenyl 4-(allyloxy)-2-hydroxy-3,6-dimethylbenzoate] showed a melting point of 116 to 120 °C. For the same molecule, in data set [1], the inhibition at 100 µM stood at 1.42%. The inhibition at 100 µM in data set [2] was 0.52 ± 1.86%. The inhibition at 100 µM in data set [3] turned out to be 2.04 ± 0.03%. Also, in data set [4] (setting [6]), the inhibition at 100 µM is -5.06 ± 0.35%. Besides, in data set [5] (setting [7]), the inhibition at 100 µM is -7.24 ± 0.75%.
As for `C=CCOc1cc(C)c(C(=O)Oc2cc(C)c(C(=O)OCCC)c(O)c2C)c(O)c1C` [6e′, 3-hydroxy-2,5-dimethyl-4-(propoxycarbonyl)phenyl 4-(allyloxy)-2-hydroxy-3,6-dimethylbenzoate], the inhibition at 100 µM in data set [1] was less than 0%; in data set [2], 5.77 ± 3.15%; in data set [3], 2.04 ± 0.08%; in data set [4] (setting [6]), -12.9 ± 0.85%; in data set [5] (setting [7]) it was 2.79 ± 0.25%.
`C=CCOC(=O)c1c(C)cc(OC(=O)c2c(C)cc(OCC=C)c(C)c2O)c(C)c1O` [6g′, allyl 4-(4-(allyloxy)-2-hydroxy-3,6-dimethylbenzoyloxy)-2-hydroxy-3,6-dimethylbenzoate] returned a melting point of 110 to 113 °C. Besides, the inhibition at 100 µM in data set [1] is less than 0%. Besides, the inhibition at 100 µM in data set [2] was -11.3 ± 1.9%. For the same molecule, in data set [3], the inhibition at 100 µM came out at 2.79 ± 0.13%. In addition, the inhibition at 100 µM in data set [4] (setting [6]) was found to be 18.6 ± 2.2%. Also, the inhibition at 100 µM in data set [5] (setting [7]) was found to be 5.29 ± 0.15%.
With `C=CCOc1cc(C)c(C(=O)Oc2cc(C)c(C(=O)OCC#N)c(O)c2C)c(O)c1C` [6h′, allyl 4-((cyanomethoxy)carbonyl)-3-hydroxy-2,5-dimethylphenyl 4-(allyloxy)-2-hydroxy-3,6-dimethylbenzoate], the melting point was in the range of 124 to 127 °C. Also, the inhibition at 100 µM in data set [1] is less than 0%. In addition, the inhibition at 100 µM in data set [2] was determined as 10.7 ± 1.41%. Also, in data set [3], the inhibition at 100 µM is -0.38 ± 0.16%. For the same molecule, the inhibition at 100 µM in data set [4] (setting [6]) was 0.62 ± 0.7%. The inhibition at 100 µM in data set [5] (setting [7]) was -14.4 ± 2.4%.
`C=CCOc1cc(C)c(C(=O)Oc2cc(C)c(C(=O)OCc3ccccc3)c(O)c2C)c(O)c1C` [6i′, benzyl 4-(4-(allyloxy)-2-hydroxy-3,6-dimethylbenzoyloxy)-2-hydroxy-3,6-dimethylbenzoate]: the melting point is 75 to 78 °C. In addition, the inhibition at 100 µM in data set [1] stood at 2.43 ± 0.3%. In data set [2], the inhibition at 100 µM is 11.4 ± 1.13%. Besides, the inhibition at 100 µM in data set [3] stood at 2.68 ± 0.11%. In addition, the inhibition at 100 µM in data set [4] (setting [6]) was -8.43 ± 2.85%. Further, in data set [5] (setting [7]), the inhibition at 100 µM was -12.9 ± 1.6%.
On to `COC(=O)c1c(C)cc(OC(=O)c2c(C)cc(OCc3ccccc3)c(C)c2O)c(C)c1O` [6j′, 3-hydroxy-4-(methoxycarbonyl)-2,5-dimethylphenyl 4-(benzyloxy)-2-hydroxy-3,6-dimethylbenzoate], for which the melting point lay within 131 to 134 °C. In addition, the inhibition at 100 µM in data set [1] is less than 0%. Moreover, the inhibition at 100 µM in data set [2] was -1.79 ± 3.79%. Also, the inhibition at 100 µM in data set [3] was 0%. Further, the inhibition at 100 µM in data set [4] (setting [6]) came out at 0.62 ± 0.8%. The inhibition at 100 µM in data set [5] (setting [7]) is -5.13 ± 0.25%.
The molecule `CCOC(=O)c1c(C)cc(OC(=O)c2c(C)cc(OCc3ccccc3)c(C)c2O)c(C)c1O` [6k′, 4-(ethoxycarbonyl)-3-hydroxy-2,5-dimethylphenyl 4-(benzyloxy)-2-hydroxy-3,6-dimethylbenzoate] came in with a melting point of 123 to 126 °C. Besides, the inhibition at 100 µM in data set [1] stood at 1.45 ± 0.1%. Also, the inhibition at 100 µM in data set [2] turned out to be 10.3 ± 2.11%. Further, the inhibition at 100 µM in data set [3] was 1.34 ± 0.1%. The inhibition at 100 µM in data set [4] (setting [6]) is -19.6 ± 2.4%. For the same molecule, in data set [5] (setting [7]), the inhibition at 100 µM stood at 14.1 ± 3.2%.
`CCCOC(=O)c1c(C)cc(OC(=O)c2c(C)cc(OCc3ccccc3)c(C)c2O)c(C)c1O` [6l′, 3-hydroxy-2,5-dimethyl-4-(propoxycarbonyl)phenyl 4-(benzyloxy)-2-hydroxy-3,6-dimethylbenzoate] yielded a melting point of 115 to 118 °C. In data set [1], the inhibition at 100 µM came out at 2.11 ± 0.9%. For the same molecule, in data set [2], the inhibition at 100 µM amounted to 16.5 ± 4.38%. Moreover, in data set [3], the inhibition at 100 µM is -2.68 ± 0.39%. Besides, the inhibition at 100 µM in data set [4] (setting [6]) was -2.92 ± 2.15%. For the same molecule, the inhibition at 100 µM in data set [5] (setting [7]) is -18.2 ± 0.2%.
Turning to `NS(=O)(=O)c1cc2c(cc1Cl)NCNS2(=O)=O` [Hyd, hydrochlorothiazide, reference compound], the inhibition at 100 µM is less than 0% in data set [1]; 19.7 ± 1% in data set [4] (MDCK); 25.1 ± 0.85% in data set [5] (read-out: Transport Inhibition Rate (%) Na^+, 100 μmol/L, MDCK cells in Transwell, mean ± SD of three replicates, negative = promotion).

Usually melting point stands for the temperature of the solid-liquid transition.
